# Results as given in patent publication US9499550B2 (BRISTOL-MYERS SQUIBB COMPANY, priority 2012, dated 2016).
# Read-outs that look alike come from different tables or passages of the source.
# Legend:
# [1] = test system: HCV genotype 1a (H77 strain) replicon in HUH-7 cells; assay: HCV replicon luciferase reporter assay, genotype 1a; format: cell-based; settings: Hepatitis C virus, Huh-7, 72 h, HCV genotype 1a replicon luciferase, 3 days incubation, read-out: LE_1a (EC50, range)
# Procedure, shortened: (§1)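 Replicon inhibition for both genotypes was measured as Renilla luciferase signal (EnduRen, 7.5 μM final, 2 h) after 3-day, 37° C exposure of replicon-bearing HUH-7 cells in 4% FCS DMEM, 0.5% DMSO. The 1b construct carries S1179I; the 1a H77 construct carries P1496L and S2204I. Twenty-point, 3-fold dilutions were fitted four-parametrically for EC50, and CC50 was taken from multiplexed Cell Titer-Blue.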
# [2] = test system: HCV genotype 1b (Con1) replicon in HUH-7 cells; assay: HCV replicon luciferase reporter assay, genotype 1b; format: cell-based; settings: Hepatitis C virus, Huh-7, 72 h, HCV genotype 1b replicon luciferase, 3 days incubation, read-out: LE_1b (EC50, range)
# Procedure, shortened: as §1
Structure (SMILES),EC50 ([1]; GETYPE1A),EC50 ([2]; GETYPE1B),EC50 [1],EC50 [2]
COc1ccc2c(Cl)cc(O[C@@H]3C[C@H]4C(=O)N[C@]5(C(=O)NS(=O)(=O)C6(CF)CC6)C[C@H]5/C=C\CC[C@@H](C)C[C@@H](C)[C@H](NC(=O)OC(C)(C)C(F)(F)F)C(=O)N4C3)nc2c1 [Compound 4200],4.82 to 103 nM,< 5.46 nM,–,–
"CC[C@@H]1C[C@H](C)CC/C=C\[C@@H]2C[C@@]2(C(=O)NS(=O)(=O)C2(C)CC2)NC(=O)[C@@H]2C[C@@H](Oc3cnc4ccc(OC)cc4c3)CN2C(=O)[C@H]1NC(=O)OC(C)(C)C [Compound 4201, tert-butyl (2R,6S,7R,9R,13aS,14aR,16aS,Z)-7-ethyl-2-(6-methoxyquinolin-3-yloxy)-9-methyl-14a-(1-methylcyclopropylsulfonylcarbamoyl)-5,16-dioxo-1,2,3,5,6,7,8,9,10,11,13a,14,14a,15,16,16a-hexadecahydrocyclopropa[e]pyrrolo[1,2-a][1,4]diazacyclopentadecin-6-ylcarbamate]",–,–,< 5.46 nM,< 5.46 nM
"CC[C@@H]1C[C@H](C)CC/C=C\[C@@H]2C[C@@]2(C(=O)NS(=O)(=O)C2(CF)CC2)NC(=O)[C@@H]2C[C@@H](Oc3nccc4cc(OC)ccc34)CN2C(=O)[C@H]1NC(=O)OC(C)(C)C [Compound 4204, tert-butyl (2R,6S,7R,9R,13aS,14aR,16aS,Z)-7-ethyl-14a-(1-(fluoromethyl)cyclopropylsulfonylcarbamoyl)-2-(6-methoxyisoquinolin-1-yloxy)-9-methyl-5,16-dioxo-1,2,3,5,6,7,8,9,10,11,13a,14,14a,15,16,16a-hexadecahydrocyclopropa[e]pyrrolo[1,2-a][1,4]diazacyclopentadecin-6-ylcarbamate]",–,–,< 5.46 nM,< 5.46 nM
CC[C@@H]1C[C@H](C)CC/C=C\[C@@H]2C[C@@]2(C(=O)NS(=O)(=O)C2(CF)CC2)NC(=O)[C@@H]2C[C@@H](Oc3nccc4cc(OC)ccc34)CN2C(=O)[C@H]1NC(=O)OC(C)(C)C(F)(F)F [Compound 4205],< 5.46 nM,< 5.46 nM,–,–
CC[C@@H]1C[C@H](C)CC/C=C\[C@@H]2C[C@@]2(C(=O)NS(=O)(=O)C2(C)CC2)NC(=O)[C@@H]2C[C@@H](Oc3ncc(N4CCOCC4)c4cc(OC)ccc34)CN2C(=O)[C@H]1NC(=O)OC(C)(C)C(F)(F)F [Compound 4206],< 5.46 nM,< 5.46 nM,–,–
CC[C@@H]1C[C@@H](C)CC/C=C\[C@@H]2C[C@@]2(C(=O)NS(=O)(=O)C2(C)CC2)NC(=O)[C@@H]2C[C@@H](Oc3ncc(N4CCOCC4)c4cc(OC)ccc34)CN2C(=O)[C@H]1NC(=O)OC(C)(C)C(F)(F)F [Compound 4207],< 5.46 nM,< 5.46 nM,–,–
CC[C@@H]1C[C@@H](C)CC/C=C\[C@@H]2C[C@@]2(C(=O)NS(=O)(=O)C2(C)CC2)NC(=O)[C@@H]2C[C@@H](Oc3ncc(OC)c4cc(OC)c(F)cc34)CN2C(=O)[C@H]1NC(=O)OC(C)(C)C(F)(F)F [Compound 4208],4.82 to 103 nM,< 5.46 nM,–,–
CC[C@@H]1C[C@H](C)CC/C=C\[C@@H]2C[C@@]2(C(=O)NS(=O)(=O)C2(C)CC2)NC(=O)[C@@H]2C[C@@H](Oc3cnc4ccc(OC)cc4n3)CN2C(=O)[C@H]1NC(=O)OC(C)(C)C(F)(F)F [Compound 4219],< 5.46 nM,< 5.46 nM,–,–
"COc1ccc2nc(O[C@@H]3C[C@H]4C(=O)N[C@]5(C(=O)NS(=O)(=O)C6(CF)CC6)C[C@H]5/C=C\CC[C@@H](C)C[C@@H](C)[C@H](NC(=O)OC(C)(C)C)C(=O)N4C3)c(C)nc2c1 [Compound 4221, tert-butyl (2R,6S,7R,9R,13aS,14aR,16aS,Z)-14a-(1-(fluoromethyl)cyclopropylsulfonylcarbamoyl)-2-(6-methoxy-3-methylquinoxalin-2-yloxy)-7,9-dimethyl-5,16-dioxo-1,2,3,5,6,7,8,9,10,11,13a,14,14a,15,16,16a-hexadecahydrocyclopropa[e]pyrrolo[1,2-a][1,4]diazacyclopentadecin-6-ylcarbamate]",–,–,< 5.46 nM,< 5.46 nM
"COc1ccc2nc(C)c(O[C@@H]3C[C@H]4C(=O)N[C@]5(C(=O)NS(=O)(=O)C6(CF)CC6)C[C@H]5/C=C\CC[C@@H](C)C[C@@H](C)[C@H](NC(=O)OC(C)(C)C)C(=O)N4C3)nc2c1 [Compound 4222, tert-butyl (2R,6S,7R,9R,13aS,14aR,16aS,Z)-14a-(1-(fluoromethyl)cyclopropylsulfonylcarbamoyl)-2-(7-methoxy-3-methylquinoxalin-2-yloxy)-7,9-dimethyl-5,16-dioxo-1,2,3,5,6,7,8,9,10,11,13a,14,14a,15,16,16a-hexadecahydrocyclopropa[e]pyrrolo[1,2-a][1,4]diazacyclopentadecin-6-ylcarbamate]",–,–,< 5.46 nM,< 5.46 nM
CC[C@@H]1C[C@H](C)CC/C=C\[C@@H]2C[C@@]2(C(=O)NS(=O)(=O)C2(C)CC2)NC(=O)[C@@H]2C[C@@H](Oc3ncc(OC4CC4)c4ccccc34)CN2C(=O)[C@H]1NC(=O)OC(C)(C)C(F)(F)F [Compound 4223],< 5.46 nM,< 5.46 nM,–,–
COc1cnc(O[C@@H]2C[C@H]3C(=O)N[C@]4(C(=O)NS(=O)(=O)C5(F)CC5)C[C@H]4/C=C\CC[C@@H](C)C[C@@H](C)[C@H](NC(=O)OC(C)(C)C)C(=O)N3C2)c2ccccc12 [Compound 4224],–,–,< 5.46 nM,< 5.46 nM
"C[C@@H]1CC/C=C\[C@@H]2C[C@@]2(C(=O)NS(=O)(=O)C2(F)CC2)NC(=O)[C@@H]2C[C@@H](Oc3ncc(OC4CC4)c4ccccc34)CN2C(=O)[C@@H](NC(=O)OC(C)(C)C)[C@H](C)C1 [Compound 4225, tert-butyl (2R,6S,7R,9R,13aS,14aR,16aS,Z)-2-(4-cyclopropoxyisoquinolin-1-yloxy)-14a-(1-fluorocyclopropylsulfonylcarbamoyl)-7,9-dimethyl-5,16-dioxo-1,2,3,5,6,7,8,9,10,11,13a,14,14a,15,16,16a-hexadecahydrocyclopropa[e]pyrrolo[1,2-a][1,4]diazacyclopentadecin-6-ylcarbamate]",–,–,< 5.46 nM,< 5.46 nM
CCOc1cnc(O[C@@H]2C[C@H]3C(=O)N[C@]4(C(=O)NS(=O)(=O)C5(C)CC5)C[C@H]4/C=C\CC[C@@H](C)C[C@@H](CC)[C@H](NC(=O)OC(C)(C)C(F)(F)F)C(=O)N3C2)c2ccc(OC)cc12 [Compound 4227],< 5.46 nM,< 5.46 nM,–,–
"COc1ccc2c(O[C@@H]3C[C@H]4C(=O)N[C@]5(C(=O)NS(=O)(=O)C6(C)CC6)C[C@H]5/C=C\CC[C@@H](C)C[C@@H](C)[C@H](N)C(=O)N4C3)ncc(OC)c2c1 [Compound 4228, (2R,6S,7R,9R,13aS,14aR,16aS,Z)-6-amino-2-(4,6-dimethoxyisoquinolin-1-yloxy)-7,9-dimethyl-N-(1-methylcyclopropylsulfonyl)-5,16-dioxo-1,2,3,5,6,7,8,9,10,11,13a,14,14a,15,16,16a-hexadecahydrocyclopropa[e]pyrrolo[1,2-a][1,4]diazacyclopentadecine-14a-carboxamide]",–,–,< 5.46 nM,< 5.46 nM
COc1ccc2c(O[C@@H]3C[C@H]4C(=O)N[C@]5(C(=O)NS(=O)(=O)C6CC6)C[C@H]5/C=C\CC[C@H](C)C[C@@H](C)[C@H](NC(=O)OC(C)(C)C(F)(F)F)C(=O)N4C3)ncc(OC)c2c1 [Compound 4229],< 5.46 nM,< 5.46 nM,–,–
CCOc1cnc(O[C@@H]2C[C@H]3C(=O)N[C@]4(C(=O)NS(=O)(=O)C5(C)CC5)C[C@H]4/C=C\CC[C@H](C)C[C@@H](C)[C@H](NC(=O)OC(C)(C)C(F)(F)F)C(=O)N3C2)c2ccc(OC)cc12 [Compound 4230],< 5.46 nM,< 5.46 nM,–,–
C=COc1cnc(O[C@@H]2C[C@H]3C(=O)N[C@]4(C(=O)NS(=O)(=O)C5(C)CC5)C[C@H]4/C=C\CC[C@@H](C)C[C@@H](C)[C@H](NC(=O)OC(C)(C)C(F)(F)F)C(=O)N3C2)c2ccc(OC)cc12 [Compound 4231],< 5.46 nM,< 5.46 nM,–,–
"COc1cc2ccnc(O[C@@H]3C[C@H]4C(=O)N[C@]5(C(=O)NS(=O)(=O)C6(CF)CC6)C[C@H]5/C=C\CC[C@@H](C)C[C@@H](C)[C@H](N)C(=O)N4C3)c2cc1F [Compound 4235, (2R,6S,7R,9R,13aS,14aR,16aS,Z)-6-amino-2-(7-fluoro-6-methoxyisoquinolin-1-yloxy)-N-(1-(fluoromethyl)cyclopropylsulfonyl)-7,9-dimethyl-5,16-dioxo-1,2,3,5,6,7,8,9,10,11,13a,14,14a,15,16,16a-hexadecahydrocyclopropa[e]pyrrolo[1,2-a][1,4]diazacyclopentadecine-14a-carboxamide]",–,–,4.82 to 103 nM,4.82 to 103 nM
CC[C@@H]1C[C@H](C)CC/C=C\[C@@H]2C[C@@]2(C(=O)NS(=O)(=O)C2(C)CC2)NC(=O)[C@@H]2C[C@@H](Oc3ncc(OC)c4cc(OC)c(F)cc34)CN2C(=O)[C@H]1NC(=O)OC(C)(C)C(F)(F)F [Compound 4236],< 5.46 nM,< 5.46 nM,–,–
CC[C@@H]1C[C@H](C)CC/C=C\[C@@H]2C[C@@]2(C(=O)NS(=O)(=O)C2(C)CC2)NC(=O)[C@@H]2C[C@@H](Oc3ncc(N4CCOCC4)c4cc(OC)c(F)cc34)CN2C(=O)[C@H]1NC(=O)OC(C)(C)C(F)(F)F [Compound 4237],< 5.46 nM,< 5.46 nM,–,–
COc1cc2c(OC)cnc(O[C@@H]3C[C@H]4C(=O)N[C@]5(C(=O)NS(=O)(=O)C6(CO)CC6)C[C@H]5/C=C\CC[C@@H](C)C[C@@H](C)[C@H](NC(=O)OC(C)(C)C(F)(F)F)C(=O)N4C3)c2cc1F [Compound 4238],4.82 to 103 nM,4.82 to 103 nM,–,–
